This note sets out measurements from patent EP2052721A1, “Use of carnosol for cartilage repair” (DSM IP Assets B.V., priority 2007, dated 2009).

The structures appear in SMILES notation. Entries after “also recorded” stand apart in the source; their conditions may differ. Where two headings read alike, the source gives them in different places.

In one assay the test system is Aggrecan. In words: Anabolic gene expression in normal human primary chondrocytes, quantitative real-time PCR (aggrecan). The format is cell-based. The note with it: carnosol at 1 µmol/L; for activity at 1 µM: Chondrocyte, normal human chondrocytes (knee), differentiation medium. How it is done: (§1) Influence of carnosol on the expression of genes involved in the build-up and break-down of cartilage. Carnosol of >= 95% purity prepared as disclosed in example 1 was used.
(§2) The effect of carnosol on the expression of human collagen, aggrecan and MMP genes was measured in vitro in normal human chondrocytes (derived from knee). Control experiments without carnosol were done concomitantly to compare the expression of these genes or proteins to that in un-stimulated cells. The effect of carnosol (at 1 µmol/L) on the expression of anabolic genes (see Table B) was measured in normal human chondrocytes obtained from the knee of healthy donors (HNAC-kn, Cambrex, #CC2250). These primary chondrocytes were passaged in vitro not more than 4 times, before being used for experiments. Cells were cultured in differentiation medium (Cambrex, #CC.3225) for 5 - 10 days. Total RNA was extracted from cultured cells and reverse-transcribed; expression levels of distinct genes were determined by quantitative real-time PCR as detailed by Richard et al. Mol. Nutr. Food Res. 49, 431-442, (2005).
(§3) Effect of carnosol on anabolic gene expression in normal human primary chondrocytes Numbers indicate the level of gene expression (in % of control-treated cells)

The subject of the next assay is SOX-9. The assay is described as follows: Anabolic gene expression in normal human primary chondrocytes, quantitative real-time PCR (SOX-9). The format is cell-based. The settings on record: carnosol at 1 µmol/L. How it is done:
as §1, §2, §3

A further assay deals with SOX-5. The assay is described as follows: Anabolic gene expression in normal human primary chondrocytes, quantitative real-time PCR (SOX-5). The note with it: carnosol at 1 µmol/L; for activity at 1 µM: Chondrocyte, normal human chondrocytes (knee), differentiation medium. The class given is cell-based. How it is done: as §1, §2, §3
Assay [1] deals with Collagen II. The assay is described as follows: Cellular collagen II production in chondrocytes, ELISA. The class given is cell-based, human. The settings on record: 20 µmol/L carnosol; for Effect of carnosol on protein expression: 10 days of culture, collagen II, result in words. The method, then:
The increased build-up of the ECM has been directly shown by measuring the production of collagen II. To this aim, chondrocytes were cultured in differentiation medium containing 20 µmol/L carnosol for 10 days. Cellular collagen II was then quantified by enzyme linked immunosorbent assay (ELISA). […]

A further assay has as its system Collagen I. The assay is described as follows: Anabolic gene expression in normal human primary chondrocytes, quantitative real-time PCR (collagen I). The class given is cell-based. The settings on record: carnosol at 1 µmol/L; for activity at 1 µM: Chondrocyte, normal human chondrocytes (knee), differentiation medium. The method, then:
as §1, §2, §3

Assay [2] has as its system Collagen II. The assay is described as follows: Anabolic gene expression in normal human primary chondrocytes, quantitative real-time PCR (collagen II). The format is cell-based. The settings on record: carnosol at 1 µmol/L; for activity at 1 µM: Chondrocyte, normal human chondrocytes (knee), differentiation medium. How it is done:
as §1, §2, §3

Where [3] appears, read: normal human chondrocytes, result in words.

Regarding `CC(C)c1cc2c(c(O)c1O)[C@@]13CCCC(C)(C)[C@@H]1C[C@@H]2OC3=O` [Carnosol, 2H-9,4a-(Epoxymethano)phenanthren-12-one], the activity at 1 µM in the assay on Aggrecan (120 h, 5 days culture, read-out: level of gene expression, Aggrecan, 5 days culture) was determined as 139%; in the assay on Aggrecan (240 h, 10 days culture, read-out: level of gene expression, Aggrecan, 10 days culture) it was 97%; in the assay on SOX-5 (120 h, 5 days culture, read-out: level of gene expression, SOX-5, 5 days culture), 85%; with SOX-5 (240 h, 10 days culture, read-out: level of gene expression, SOX-5, 10 days culture), 126%; in the assay on Collagen I (120 h, 5 days culture, read-out: level of gene expression, Collagen I, 5 days culture), 207%; with Collagen I (240 h, 10 days culture, read-out: level of gene expression, Collagen I, 10 days culture), 98%. Moreover, the activity at 1 µM in the assay on Collagen II [2] (120 h, 5 days culture, read-out: level of gene expression, Collagen II, 5 days culture) came out at 128%; in the assay on Collagen II [2] (240 h, 10 days culture, read-out: level of gene expression, Collagen II, 10 days culture) it was 189%. Moreover, the “effect of carnosol on gene expression, Aggrecan” value with Aggrecan (setting [3]) is recorded as “substantially increased”. Further, in the assay on SOX-9 (Chondrocyte, 120 h, normal human chondrocytes (knee), differentiation medium, 5 days culture, read-out: level of gene expression, SOX-9, 5 days culture), the mrna remaining at 1 µM amounted to 112%. Moreover, the SOX-9 gene expression, % of control at 1 µM in the assay on SOX-9 (Chondrocyte, 240 h, normal human chondrocytes (knee), differentiation medium, 10 days culture, read-out: level of gene expression, SOX-9, 10 days culture) was 93%. Moreover, the “effect of carnosol on gene expression, SOX-9” value with SOX-9 (setting [3]) is “enhanced; also recorded: Increased”. Also, the “effect of carnosol on gene expression, SOX-5” value with SOX-5 (setting [3]) is listed as “enhanced; also recorded: Increased”. The figures for the “Effect of carnosol on protein expression” value with Collagen II [1] and in the assay with Collagen II [1] (listed as carnosol) were “Increased” and “significantly increased”, respectively. In addition, in the assay on Collagen II [1] (Homo sapiens, Chondrocyte, 240 h, 10 days of culture in differentiation medium, cellular collagen II by ELISA, vehicle = 100), the activity at 20 µM was 129%. The “effect of carnosol on gene expression, Collagen I” value with Collagen I (setting [3]) is recorded as “Increased”. In the assay with Collagen II [2] (setting [3]), the “effect of carnosol on gene expression, Collagen II” value is on record as “substantially increased”.
